Experimental data from patent US20050059626A1, “Methods of preventing and treating viral infections using immunomodulatory polynucleotide sequences” (priority 2000, published 2005).

Tests used:
RSV A2 = assay: RSV lung titer in cotton rats after non-local (IP or SC) administration; assay type: in vivo, cotton rat (Sigmoden hispidis); details: for RSV titer (log10/g lung) Mean / RSV titer (log10/g lung) in cotton rat no. 1 / RSV titer (log10/g lung) in cotton rat no. 2 / RSV titer (log10/g lung) in cotton rat no. 3 / RSV titer (log10/g lung) in cotton rat no. 4 / RSV titer (log10/g lung) in CR no. 1 / RSV titer (log10/g lung) in CR no. 2 / RSV titer (log10/g lung) in CR no. 3 / RSV titer (log10/g lung) in CR no. 4: Non-ISS = SEQ ID NO:10
Method: Cotton rats, 50-100 g and 4-12 weeks old (Sigmoden hispidis) of either sex were used in these studies. All of the animals were descendants of two pair of cotton rats obtained in 1984 from the Small Animal Section of the Veterinary Research Branch, Division of Research Services, National Institutes of Health.
RSV strain A2 was purchased from the ATCC (ATCC VR26). Working stocks of this virus were prepared as described in detail by Wyde et al. (1995) Pediatr. Res. 38:543-550. ISS sequence tested for RSV experiments was 5′-[…]-3′ (SEQ ID NO:1) (phosphorothioate). Control, non-ISS sequences used were 5′-[…]-3′ (SEQ ID NO:9) (phosphorothioate) and 5′-[…]-3′ (SEQ ID NO:10) (phosphorothioate), as well as PBS.
RSV levels in virus pools and lung lavage fluids (L.F.) were determined using sterile 96-well, flat bottom tissue culture plates (Falcon 3072), serial 3-fold dilutions and 2% FCS-MEM as described in detail previously (Wyde et al., 1995). […] The amount of virus in virus pools was expressed as a median tissue culture infectious doses (TCID50/ml, log10). Titers of virus in L.F. were expressed as TCID50/g lung tissue (log10). The minimum detectable virus concentration in these assays was 1.3 log10 TCID50/ml (virus pools) or 1.6 log10 TCID50/g lung.
Twenty cotton rats were divided into 5 groups of 4 animals. Administered to these animals, either intraperitoneally (IP) or subcutaneously (SC), was PBS, immunostimulatory sequence (ISS) 5′-[…]-3′ (SEQ ID NO:1) or non-ISS sequence 5′-[…]-3′ (SEQ ID NO:10), each sequence at 150 μg/injection. On Day 0 each of these animals was […] IN with 100 TCID50 of RSV A2. Four days later each cotton rat was sacrificed. The lungs of each animal were removed, lavaged and assessed for RSV.

canine papillomavirus = assay: Canine oral papilloma model, time to lesion regression; assay type: in vivo, Beagle puppies
Method: A model of canine oral papilloma was used to test the efficacy of ISS on papilloma. Beagle puppies were inoculated in the bucal mucosa with canine papillomavirus and developing papilloma lesions were monitored daily. Four groups of seven dogs each were treated with differing amount of ISS oligonucleotide (5′-[…]-3′ (SEQ ID NO:1), phosphorothioate backbone). One group received 50 μg ISS twice a week, another group received 500 μg ISS twice a week, the third group received 500 μg ISS one time only at the first signs of papilloma lesion development (injected within the papilloma lesion) and the fourth group (control group) received PBS twice a week. All dogs were monitored daily for the development of lesions and the time to regression.

HBV = assay: Chronic HBV model: serum HBV DNA and HBsAg in STC transgenic mice; assay type: in vivo, STC strain transgenic mice
Method: ISS activity was tested in an animal model of chronic hepatitis. An ISS-containing phosphorothioate oligonucleotide (5′-[…]-3′) (SEQ ID NO:1), was delivered to STC strain transgenic mice, followed by measurement of HBV DNA and HBsAg production.
STC line mice were developed at Stanford University by Patricia Marion. The majority of these mice secrete HBV of the Ayw genotype (Galibert et al. (1979) Nature 281:646) to titers of 10^6-8 viral genome equivalents per ml of serum. STC mice were derived from the FVB strain, and were constructed by microinjection of HBV genomic DNA.
Approximately one month old mice were bled and tested for serum levels of HBsAg, which is predictive of viral DNA titer. A pool of 40 STC mice with approximately equal levels of HBsAg were selected and randomly assigned to four treatment groups of 10 animals each. The groups were treated as follows: • 1. 100 μg of ISS injected subcutaneously, once per week for 3 weeks (days 0, 7, 14) • 2. 100 μg of ISS injected subcutaneously, one injection at day 14 • 3. 100 ng of murine 1L-12 injected intraperitoneally on days 12, 13, and 14. • 4. PBS injected subcutaneously (days 0, 7, 14)
Blood samples were taken at day 0, 7, 14, 15 (22 hr after last IL-12 injection), 18, 28 and 35. Serum prepared from the blood samples was tested for HBV DNA by quantitative PCR (testing performed under contract by Hepadnavirus Testing, Inc.), and HBsAg using a commercially available EIA kit for HBsAg from Abbott Laboratories. Animals were sacrificed at day 35 and livers were collected for histologic analysis.

[1] = 150 μg IP Day −1, RSV Day 0, lungs Day 4
[2] = 150 μg IP Day −3, RSV Day 0, lungs Day 4
[3] = 150 μg SC Day −1, RSV Day 0, lungs Day 4
[4] = 150 μg SC Day −3, RSV Day 0, lungs Day 4

5′-TGACTGTGAACGTTCGAGATGA-3′ [SEQ ID NO: 1]
RSV titer (log10/g lung) Mean (RSV A2; [1]): 3.6 log10/g lung
RSV titer (log10/g lung) in cotton rat no. 1 (RSV A2; [1]): 3.8 log10/g lung
RSV titer (log10/g lung) in cotton rat no. 2 (RSV A2; [1]): 3.3 log10/g lung
RSV titer (log10/g lung) in cotton rat no. 3 (RSV A2; [1]): 3.3 log10/g lung
RSV titer (log10/g lung) in cotton rat no. 4 (RSV A2; [1]): 3.8 log10/g lung
RSV titer (log10/g lung) Mean (RSV A2; [2]): 3.7 log10/g lung
RSV titer (log10/g lung) in cotton rat no. 1 (RSV A2; [2]): 3.3 log10/g lung
RSV titer (log10/g lung) in cotton rat no. 2 (RSV A2; [2]): 3.8 log10/g lung
RSV titer (log10/g lung) in cotton rat no. 3 (RSV A2; [2]): 3.8 log10/g lung
RSV titer (log10/g lung) in cotton rat no. 4 (RSV A2; [2]): 3.8 log10/g lung
RSV titer (log10/g lung) Mean (RSV A2; [3]): 4.0 log10/g lung
RSV titer (log10/g lung) in CR no. 1 (RSV A2; [3]): 4 log10/g lung
RSV titer (log10/g lung) in CR no. 2 (RSV A2; [3]): 4.5 log10/g lung
RSV titer (log10/g lung) in CR no. 3 (RSV A2; [3]): 3.5 log10/g lung
RSV titer (log10/g lung) in CR no. 4 (RSV A2; [3]): 4 log10/g lung
RSV titer (log10/g lung) Mean (RSV A2; [4]): 4.1 log10/g lung
RSV titer (log10/g lung) in CR no. 1 (RSV A2; [4]): 4 log10/g lung
RSV titer (log10/g lung) in CR no. 2 (RSV A2; [4]): 4.5 log10/g lung
RSV titer (log10/g lung) in CR no. 3 (RSV A2; [4]): 4 log10/g lung
RSV titer (log10/g lung) in CR no. 4 (RSV A2; [4]): 4 log10/g lung
Reduction in RSV viral titers compared to PBS (RSV A2; IP and SC administration of 150 μg): failed to cause a statistically significant reduction in viral titers
Average rate of lesion regression (canine papillomavirus; 500 μg one time at first signs of papilloma lesion): higher average rate of lesion regression than untreated dogs
Average time for rapid regression (canine papillomavirus; 500 μg one time at first signs of papilloma, injected within the lesion): 25.1 days
Regression time (canine papillomavirus; other treatment groups: 50 μg or 500 μg twice a week): did not show a marked difference in regression time
Reduction of mean viral DNA titer (HBV; Group 2: single SC injection 100 μg at day 14, three days after injection): 90 fold
Serum HBsAg levels versus PBS controls (HBV; STC mice, 100 μg SC): trend towards decreased average HBsAg values
Effect on serum HBV DNA viral titer (HBV; STC mice, ISS 100 μg SC, murine IL-12 100 ng IP days 12, 13, 14): effective in reducing viral titer
